Data published in patent US20210163593A1, “TREATMENT OF MONOGENIC DISEASES WITH AN ANTI-CD45RC ANTIBODY” (INSERM (INSTITUT NATIONAL DE LA SANTÉ ET DE LA RECHERCHE …, priority 2017, published 2021).

Legend:
Format in all cases: in vivo, rat
[1] = Weight / animal growth of Dmd^mdx rats during treatment; settings: ip from week 2 up to week 12 of age
Experimental: FIG. 6 is a set of two graphs showing the weight of wild-type or Dmd^mdx rats during treatment using prednisolone or anti-CD45RC monoclonal antibody. Control littermate wild-type (WT) or Dmd^mdx (KO) rats received intraperitoneal injections of prednisolone or anti-CD45RC monoclonal antibody (OX22) from week 2 up to week 12 of age and weight was recorded at the indicated time points.
(§1) Wild-type (WT) or Dmd^mdx (KO) rats received intraperitoneal injections of a mouse anti-rat CD45RC monoclonal antibody (clone OX22, 2 mg/kg, every 3.5 days) from week 2 of age up to week 12.
(§2) Prednisolone was administered by intraperitoneal injections (0.5 mg/kg, 5 days a week) from week 2 of age up to week 12.

Dmd^mdx rats = experiment: Grip test of forelimb muscle strength in Dmd^mdx rats; settings: ip from week 2 of age, tested at 12 weeks
Experimental: as §1, §2
At week 12 of age treated rats were analyzed for muscle strength using a grip test.
Rats were placed with their forepaws on a grid and were gently pulled backward until they released their grip. A grip meter (Bio-GT3, BIOSEB, France), attached to a force transducer, measured the peak force generated.
To examine whether muscle function was improved by the anti-CD45RC monoclonal antibody treatment, muscle strength was analyzed by a grip test of forelimbs in WT and Dmd^mdx rats at 12 weeks of age after initiation of treatment at 2 weeks of age.

[2] = test system: T CD8^+ CD45RC^high cells; experiment: Flow cytometry of T cell subsets in muscle and spleen of WT and Dmd^mdx rats after treatment
Experimental: Muscles of both hind limbs from WT or Dmd^mdx rats were excised and weighed. Muscles were minced and placed in gentle MACS C tubes with collagenase D in the presence of FCS 2%, 1 mM EDTA. Two runs of 30 minutes each in a gentle MACS dissociator were performed with new collagenase added between each run. Cells were suspended in 30 mL of PBS FCS 2%, 1 mM EDTA, were then applied to 15 mL of Hystopaque and centrifuged at 1000 g for 30 minutes without a break. Mononuclear cells were collected from the Hystopaque and PBS interface, washed and suspended in PBS FCS 2%, 1 mM EDTA.
Spleen was harvested, perfused with PBS and digested by collagenase D for 15 minutes at 37° C. Cells were suspended in PBS FCS 2%, 1 mM EDTA and mononuclear cells were recovered as explained above.
Mononuclear cells were stained with antibodies against the following antigens: CD45 (clone OX-1), T-cell receptor (TCR; clone R7/3), CD45RC (clone OX22), CD8 (clone OX8) and CD4 (W3/25), as well as with viability dyes eFluor506 or eFluor450, all from eBiosciences. Analysis was performed on a BD FACS Verse with FACSuite Software version 1.0.6. Post-acquisition analysis was performed with FlowJo software.
as §1, §2

## C[C@]12C=CC(=O)C=C1CC[C@@H]1[C@@H]2[C@@H](O)C[C@@]2(C)[C@H]1CC[C@]2(O)C(=O)CO [prednisolone]
[1]
  animal growth (weight): severe reduction
Dmd^mdx rats
  muscle strength (grip test) in treated Dmd^mdx rats compared with WT littermate controls: levels identical to those of WT
  muscle strength (grip test) in treated vs. untreated Dmd^mdx rats: increased
[2]; ip from week 2 of age, analyzed at 12 weeks, muscle of Dmd^mdx rats and spleen of WT and Dmd^mdx rats
  T CD8^+ CD45RC^high cells: specific decrease
[2]; muscle and spleen of Dmd^mdx rats and spleen of WT rats, data not shown
  CD4^+CD45RC^high cells: numerically reduced
[2]; muscle and spleen of Dmd^mdx rats and spleen of WT rats, week 12
  CD8^+CD45RC^int/neg cells: maintained
